Experimental data as given in US20080299239A1, “Inhibitor of Glucose Absorption and Method for Producing the Same” (NICHIREI FOODS INC., priority 2003, published 2008).

Tested on: Caco-2 cells
Test: Test of glucose uptake by cultured Caco-2 cells derived from human intestinal tract
Assay type: cell-based
Details: 250 μg/ml, 15 min preincubation, 10 min incubation, differentiated Caco-2 cells; for glucose transportation (3H-labeled glucose uptake): FIG. 1, relative to control; for 3-O-methyl glucose transportation (3H-labeled uptake): FIG. 2, relative to control
Procedure: Cultured Caco-2 cells derived from human intestinal tracts were monolayer-cultured on a plate for about 10 days and then differentiated. A DMEM medium containing 10% fetal calf serum was used. Pigment 1 and pigment 2 (250 μg/ml each) were added to the differentiated Caco-2 cells, the resultants were preincubated for 15 minutes, and ^3H-labeled glucose or 3-O-methyl glucose was then added thereto, followed by incubation for 10 minutes. ^3H incorporated into the cells was analyzed to determine the amount of glucose or methyl glucose transported.

C[C@@H]1O[C@@H](Oc2cc3c(O)cc(O)cc3[o+]c2-c2ccc(O)c(O)c2)[C@H](O)[C@H](O)[C@H]1O.[Cl-] [pigment 1, cyanidin-3-rhamnoside]
glucose transportation (3H-labeled glucose uptake): specifically inhibited
3-O-methyl glucose transportation (3H-labeled uptake): specifically inhibited

CC1O[C@@H](Oc2cc3c(O)cc(O)cc3[o+]c2-c2ccc(O)cc2)[C@@H](O)C(O)[C@H]1O (stereo partly shown) [pigment 2, pelargonidin-3-rhamnoside]
glucose transportation (3H-labeled glucose uptake): specifically inhibited
3-O-methyl glucose transportation (3H-labeled uptake): specifically inhibited
